EC50 data for 33 compounds are collected here from BindingDB's records for doi:10.1016/j.ejmech.2019.02.016 (National Health Research Institutes, 2019).

The structures appear in SMILES notation. pEC50: −log10 of the molar value.

The assay in a line: Inhibition of NS5A in HCV genotype 1b infected in human HuH7 replicon cells assessed as reduction in subgenomic viral RNA replication treated for 2 days followed by compound washout and subsequent compound dosing measured after 1 day by SEAP reporter gene assay. (In antiviral work, replicon cells carry a viral genome segment that copies itself.)
With `CC(=O)N[C@@H](C(=O)N1CCC[C@H]1c1ncc(-c2ccc(-c3ccc(-c4cnc([C@@H]5CCCN5C(=O)[C@H](NC(C)=O)c5ccccc5)s4)cc3)cc2)s1)c1ccccc1`, the pEC50 (commonly the negative decadic logarithm of the EC50, by convention in mol/L) was 10.70. For `COC(=O)N[C@H](C(=O)N1CCC[C@H]1c1ncc(-c2ccc(-c3ccc(-c4cnc([C@@H]5CCCN5C(=O)[C@@H](NC(=O)OC)C(C)C)s4)cc3)cc2)s1)C(C)C`, the pEC50 was 7.25. With `CC[C@H](NC(=O)OC)C(=O)N1CCC[C@H]1c1ncc(-c2ccc(-c3ccc(-c4cnc([C@@H]5CCCN5C(=O)[C@H](CC)NC(=O)OC)s4)cc3)cc2)s1`, the pEC50 is 7.24. The result for `COC(=O)N[C@H](C(=O)N1CCC[C@H]1c1ncc(-c2ccc(-c3ccc(-c4cnc([C@@H]5CCCN5C(=O)[C@@H](NC(=O)OC)C(C)(C)C)s4)cc3)cc2)s1)C(C)(C)C` reads 6.33. Take `CCCC[C@@H](NC(=O)C1CC1)C(=O)N1CCC[C@H]1c1ncc(-c2ccc(-c3ccc(-c4cnc([C@@H]5CCCN5C(=O)[C@@H](CCCC)NC(=O)C5CC5)s4)cc3)cc2)s1`: the pEC50 is 6.45. Take `CN1CCN(CCC(=O)N[C@H](C(=O)N2CCC[C@H]2c2ncc(-c3ccc(-c4ccc(-c5cnc([C@@H]6CCCN6C(=O)[C@H](NC(=O)CCN6CCN(C)CC6)c6ccccc6)s5)cc4)cc3)s2)c2ccccc2)CC1`: the pEC50 was 6.99. In the case of `CN(C)CCC(=O)N[C@H](C(=O)N1CCC[C@H]1c1ncc(-c2ccc(-c3ccc(-c4cnc([C@@H]5CCCN5C(=O)[C@H](NC(=O)CCN(C)C)c5ccccc5)s4)cc3)cc2)s1)c1ccccc1`, the pEC50 is 8.16. Turning to `O=C(N[C@H](C(=O)N1CCC[C@H]1c1ncc(-c2ccc(-c3ccc(-c4cnc([C@@H]5CCCN5C(=O)[C@H](NC(=O)c5ccsc5)c5ccccc5)s4)cc3)cc2)s1)c1ccccc1)c1ccsc1`, the pEC50 was 6.91. Regarding `O=C(N[C@H](C(=O)N1CCC[C@H]1c1ncc(-c2ccc(-c3ccc(-c4cnc([C@@H]5CCCN5C(=O)[C@H](NC(=O)c5ccccn5)c5ccccc5)s4)cc3)cc2)s1)c1ccccc1)c1ccccn1`, the pEC50 was 5.58. With `O=C(N[C@H](C(=O)N1CCC[C@H]1c1ncc(-c2ccc(-c3ccc(-c4cnc([C@@H]5CCCN5C(=O)[C@H](NC(=O)C5CCCC5)c5ccccc5)s4)cc3)cc2)s1)c1ccccc1)C1CCCC1`, the pEC50 was 8.96.

For `CCCCCC(=O)N[C@H](C(=O)N1CCC[C@H]1c1ncc(-c2ccc(-c3ccc(-c4cnc([C@@H]5CCCN5C(=O)[C@H](NC(=O)CCCCC)c5ccccc5)s4)cc3)cc2)s1)c1ccccc1`, the pEC50 is 8.62. For the compound `O=C(CCN1CCOCC1)N[C@@H](C(=O)N1CCC[C@H]1c1ncc(-c2ccc(-c3ccc(-c4cnc([C@@H]5CCCN5C(=O)[C@H](NC(=O)CCN5CCOCC5)c5ccccc5)s4)cc3)cc2)s1)c1ccccc1`, the pEC50 was 9.70.

In the case of `O=C(CCn1cccc1)N[C@@H](C(=O)N1CCC[C@H]1c1ncc(-c2ccc(-c3ccc(-c4cnc([C@@H]5CCCN5C(=O)[C@H](NC(=O)CCn5cccc5)c5ccccc5)s4)cc3)cc2)s1)c1ccccc1`, the pEC50 was 10.77.

Consider `O=C(N[C@@H](C(=O)N1CCC[C@H]1c1ncc(-c2ccc(-c3ccc(-c4cnc([C@@H]5CCCN5C(=O)[C@H](NC(=O)c5ccoc5)c5ccccc5)s4)cc3)cc2)s1)c1ccccc1)c1ccoc1`, for which the pEC50 is 10.10. With `O=C(Cc1ccccc1)N[C@@H](C(=O)N1CCC[C@H]1c1ncc(-c2ccc(-c3ccc(-c4cnc([C@@H]5CCCN5C(=O)[C@H](NC(=O)Cc5ccccc5)c5ccccc5)s4)cc3)cc2)s1)c1ccccc1`, the pEC50 was 9.89. As to `O=C(N[C@@H](C(=O)N1CCC[C@H]1c1ncc(-c2ccc(-c3ccc(-c4cnc([C@@H]5CCCN5C(=O)[C@H](NC(=O)C5CC5)c5ccccc5)s4)cc3)cc2)s1)c1ccccc1)C1CC1`, the pEC50 is 11.52. For `CCCC(=O)N[C@@H](C(=O)N1CCC[C@H]1c1ncc(-c2ccc(-c3ccc(-c4cnc([C@@H]5CCCN5C(=O)[C@H](NC(=O)CCC)c5ccccc5)s4)cc3)cc2)s1)c1ccccc1`, the pEC50 was 10.89. Turning to `CS(=O)(=O)N[C@@H](C(=O)N1CCC[C@H]1c1ncc(-c2ccc(-c3ccc(-c4cnc([C@@H]5CCCN5C(=O)[C@H](NS(C)(=O)=O)c5ccccc5)s4)cc3)cc2)s1)c1ccccc1`, the pEC50 was 8.47. Take `CCCC[C@H](NC(=O)OC)C(=O)N1CCC[C@H]1c1ncc(-c2ccc(-c3ccc(-c4cnc([C@@H]5CCCN5C(=O)[C@H](CCCC)NC(=O)OC)s4)cc3)cc2)s1`: the pEC50 was 6.63. Turning to `O=C(CCN1CCCC1)N[C@@H](C(=O)N1CCC[C@H]1c1ncc(-c2ccc(-c3ccc(-c4cnc([C@@H]5CCCN5C(=O)[C@H](NC(=O)CCN5CCCC5)c5ccccc5)s4)cc3)cc2)s1)c1ccccc1`, the pEC50 is 8.40.

As for `C[C@@H](NC(=O)C1CC1)C(=O)N1CCC[C@H]1c1ncc(-c2ccc(-c3ccc(-c4cnc([C@@H]5CCCN5C(=O)[C@@H](C)NC(=O)C5CC5)s4)cc3)cc2)s1`, the pEC50 is 6.94. `O=C(CCN1CCCCC1)N[C@@H](C(=O)N1CCC[C@H]1c1ncc(-c2ccc(-c3ccc(-c4cnc([C@@H]5CCCN5C(=O)[C@H](NC(=O)CCN5CCCCC5)c5ccccc5)s4)cc3)cc2)s1)c1ccccc1`: the pEC50 is 9.05. On to `O=C(N[C@@H](C(=O)N1CCC[C@H]1c1ncc(-c2ccc(-c3ccc(-c4cnc([C@@H]5CCCN5C(=O)[C@H](NC(=O)N5CCOCC5)c5ccccc5)s4)cc3)cc2)s1)c1ccccc1)N1CCOCC1`, for which the pEC50 was 10.70. The result for `CC(C)C(=O)N[C@@H](C(=O)N1CCC[C@H]1c1ncc(-c2ccc(-c3ccc(-c4cnc([C@@H]5CCCN5C(=O)[C@H](NC(=O)C(C)C)c5ccccc5)s4)cc3)cc2)s1)c1ccccc1` reads 11.05; that for `CS(=O)(=O)N[C@H](C(=O)N1CCC[C@H]1c1ncc(-c2ccc(-c3ccc(-c4cnc([C@@H]5CCCN5C(=O)[C@H](NS(C)(=O)=O)c5ccccc5)s4)cc3)cc2)s1)c1ccccc1`, 6.83; that for `O=C(N[C@H](C(=O)N1CCC[C@H]1c1ncc(-c2ccc(-c3ccc(-c4cnc([C@@H]5CCCN5C(=O)[C@H](NC(=O)c5ccncc5)c5ccccc5)s4)cc3)cc2)s1)c1ccccc1)c1ccncc1`, 9.43. Consider `CC(C)(C)[C@@H](NC(=O)C1CC1)C(=O)N1CCC[C@H]1c1ncc(-c2ccc(-c3ccc(-c4cnc([C@@H]5CCCN5C(=O)[C@H](NC(=O)C5CC5)C(C)(C)C)s4)cc3)cc2)s1`, for which the pEC50 was 5.80. In the case of `CCN(CC)CCC(=O)N[C@H](C(=O)N1CCC[C@H]1c1ncc(-c2ccc(-c3ccc(-c4cnc([C@@H]5CCCN5C(=O)[C@H](NC(=O)CCN(CC)CC)c5ccccc5)s4)cc3)cc2)s1)c1ccccc1`, the pEC50 was 7.66. For `O=C(Cc1ccccc1)N[C@H](C(=O)N1CCC[C@H]1c1ncc(-c2ccc(-c3ccc(-c4cnc([C@@H]5CCCN5C(=O)[C@H](NC(=O)Cc5ccccc5)c5ccccc5)s4)cc3)cc2)s1)c1ccccc1`, the pEC50 was 8.54. As to `O=C(N[C@@H](C(=O)N1CCC[C@H]1c1ncc(-c2ccc(-c3ccc(-c4cnc([C@@H]5CCCN5C(=O)[C@H](NC(=O)c5cccnc5)c5ccccc5)s4)cc3)cc2)s1)c1ccccc1)c1cccnc1`, the pEC50 is 9.89. With `CC(=O)N[C@H](C(=O)N1CCC[C@H]1c1ncc(-c2ccc(-c3ccc(-c4cnc([C@@H]5CCCN5C(=O)[C@H](NC(C)=O)c5ccccc5)s4)cc3)cc2)s1)c1ccccc1`, the pEC50 was 9.23. Turning to `CC(C)C(=O)N[C@H](C(=O)N1CCC[C@H]1c1ncc(-c2ccc(-c3ccc(-c4cnc([C@@H]5CCCN5C(=O)[C@H](NC(=O)C(C)C)c5ccccc5)s4)cc3)cc2)s1)c1ccccc1`, the pEC50 was 9.51. For `O=C(N[C@@H](C(=O)N1CCC[C@H]1c1ncc(-c2ccc(-c3ccc(-c4cnc([C@@H]5CCCN5C(=O)[C@H](NC(=O)c5ccncc5)c5ccccc5)s4)cc3)cc2)s1)c1ccccc1)c1ccncc1` the value was 10.96.
